Values after ≈ are worked out from the molar mass of the structure shown. Structures can show the parent of a compound that is named as a salt. Where two headings read alike, the source gives them in different places. Values belong to the compound of their own block, whether it stands above or below them.
Assays:
[1] = tested on: HeLa S-3 cells; assay: HeLa S-3 cell growth inhibition test; assay type: cell-based; conditions: Homo sapiens, 96 h; HeLa S-3 cells, 37° C., 4 days, Giemsa's staining; read-out: minimum growth inhibition concentration (MIC)
Protocol: (a) HeLa S-3 Cell Growth Inhibition Test
A test compound was appropriately diluted with a liquid medium (a minimum essential medium containing a 10% fecal calf serum). The resulting liquid was poured into each well of a 96-well micro titer plate, in an amount of 0.1 ml/well. Then, HeLa S-3 cells were diluted with the same liquid medium so that the cell concentration became 2×10^4 cells/ml, and the resulting liquid was poured into each well of the above plate in an amount of 0.1 ml/well. The resulting plate was allowed to stand in a CO2 gas incubator of 37° C. for 4 days, to effect incubation. After the incubation, the supernatant liquid in each well was removed and fixation by ethanol was effected for 10 minutes. The fixed cells were tinted with a Giemsa's staining solution to determine the minimum growth inhibition concentration (MIC) of test compound for HeLa S-3 cells.

[2] = tested on: L-1210 ascites tumor; assay: Effect on L-1210 ascites tumor (survival of tumor-transplanted mice); assay type: in vivo, CDF1 strain mice; conditions: Mus musculus, L1210, ip, 720 h, survival observed 30 days, read-out: prolongation of survival time T/C; for response vs control in vivo at 5 mg/kg: 5 mg/kg i.p.; for response vs control in vivo at 25 mg/kg: 25 mg/kg i.p.
Protocol: (b) Effect on L-1210 Ascites Tumor
1×10^5 L-1210 cells were intraperitoneally transplanted to CDF1 strain mice in groups of 6 members (male, 5-week old, weight =about 25 g) on day 0. A test compound dissolved in an aqueous 5% glucose solution was intraperitoneally administered to the test group of the above mice twice on day 1 and day 5. Only the aqueous 5% glucose solution was administered to the control group. Incidentally, the 25 mg/kg administration of the test compound No. 30 was effected only once on day 1. There were examined (a) the average survival days of the test group and (b) the average survival days of the control group. The examination period for survival days was 30 days. From the (a) and (b) was calculated a prolongation of survival time [T/C (%)], using the following equation: […]

[3] = tested on: Ehrlich solid cancer; assay: Effect on Ehrlich solid cancer (tumor weight in mice); assay type: in vivo, ddY strain mice; conditions: Mus musculus, iv, 240 h; for response vs control in vivo at 7 mg/kg: 7 mg/kg i.v.; for response vs control in vivo at 10 mg/kg: 10 mg/kg i.v.; for response vs control in vivo at 14 mg/kg: 14 mg/kg i.v.
Protocol: (c) Effect on Ehrlich Solid Cancer 5×10^6 Ehrlich cells were transplanted to ddY strain mice in groups of 7 members (male, 5-week old, weight=about 25 g) subcutaneously at the left groin on day 0. […] Only the aqueous 5% glucose solution was administered to the control group. […] From the (a) and (b) was calculated T/C (%), using the following equation: T/C (%)=(a/b)×100

[4] = twice on day 1 and day 5, day 10, read-out: T/C (average tumor weight, treated/control)

Structure (SMILES): Cc1cc2c(c3c1[nH]c1ccccc13)C(=O)N(CCN(C)C)C2=O [compound 2]
- MIC [1]: 0.16 µg/mL (≈ 0.498 µM)
- response vs control in vivo at 5 mg/kg ([2]; twice on day 1 and day 5): 180%

Structure (SMILES): Cc1cc2[nH]c3ccccc3c2c2c1C(=O)N(CCN(C)C)C2=O [compound 3]
- MIC [1]: 0.1 µg/mL (≈ 0.311 µM)
- response vs control in vivo at 25 mg/kg ([2]; twice on day 1 and day 5): 167%

Structure (SMILES): CN(C)CCN1C(=O)c2ccc3[nH]c4ccc(Cl)cc4c3c2C1=O [compound 9]
- MIC [1]: 3.13 µg/mL (≈ 9.16 µM)
- response vs control in vivo at 25 mg/kg ([2]; twice on day 1 and day 5): 131%

Structure (SMILES): COc1ccc2[nH]c3ccc4c(c3c2c1)C(=O)N(CCN(C)C)C4=O [compound 15]
- MIC [1]: 3.13 µg/mL (≈ 9.28 µM)
- response vs control in vivo at 25 mg/kg ([2]; twice on day 1 and day 5): 160%

Structure (SMILES): COc1ccc2[nH]c3cc(C)c4c(c3c2c1)C(=O)N(CCN(C)C)C4=O [compound 17]
- MIC [1]: 0.16 µg/mL (≈ 0.455 µM)
- response vs control in vivo at 5 mg/kg ([2]; twice on day 1 and day 5): 126%
- response vs control in vivo at 25 mg/kg ([2]; twice on day 1 and day 5): 129%

Structure (SMILES): CN(C)CCN1C(=O)c2ccc3[nH]c4cc5c(cc4c3c2C1=O)OCO5 [compound 22]
- MIC [1]: 0.16 µg/mL (≈ 0.455 µM)
- response vs control in vivo at 5 mg/kg ([2]; twice on day 1 and day 5): 143%
- response vs control in vivo at 25 mg/kg ([2]; twice on day 1 and day 5): 160%

Structure (SMILES): CN(C)CCN1C(=O)c2cc(-c3ccccc3)c3[nH]c4ccc(O)cc4c3c2C1=O [compound 27]
- MIC [1]: 0.31 µg/mL (≈ 0.776 µM)
- response vs control in vivo at 30 mg/kg ([3]; 30 mg/kg i.v., twice on day 1 and day 5, day 10, read-out: T/C (average tumor weight, treated/control)): 15%

Structure (SMILES): CN(C)CCN1C(=O)c2ccc3[nH]c4cc(O)ccc4c3c2C1=O [compound 28]
- MIC [1]: 0.8 µg/mL (≈ 2.47 µM)
- response vs control in vivo at 5 mg/kg ([2]; twice on day 1 and day 5): 176%
- response vs control in vivo at 25 mg/kg ([2]; twice on day 1 and day 5): 379%

Structure (SMILES): CN(C)CCN1C(=O)c2ccc3c(c2C1=O)c1cc(O)ccc1n3C [compound 30]
- MIC [1]: 0.1 µg/mL (≈ 0.296 µM)
- response vs control in vivo at 5 mg/kg ([2]; twice on day 1 and day 5): 156%
- response vs control in vivo at 25 mg/kg ([2]; only once on day 1): 172%

Structure (SMILES): CN(C)CCN1C(=O)c2ccc3[nH]c4cc(O)c(O)cc4c3c2C1=O [compound 31]
- response vs control in vivo at 5 mg/kg ([2]; twice on day 1 and day 5): 176%
- response vs control in vivo at 50 mg/kg ([3]; 50 mg/kg i.v., only once on day 1, day 10, read-out: T/C (average tumor weight, treated/control)): 31%

Structure (SMILES): CN(C)CCN1C(=O)c2cc(Cl)c3[nH]c4ccc(O)cc4c3c2C1=O [compound 32]
- MIC [1]: 0.31 µg/mL (≈ 0.866 µM)
- response vs control in vivo at 25 mg/kg ([3]; 25 mg/kg i.v., only once on day 1, day 10, read-out: T/C (average tumor weight, treated/control)): 9%

Structure (SMILES): COc1cc2c(c3c1[nH]c1ccc(O)cc13)C(=O)N(CCN(C)C)C2=O [compound 38]
- MIC [1]: 0.06 µg/mL (≈ 0.17 µM)
- response vs control in vivo at 7 mg/kg [3, 4]: 12%

Structure (SMILES): CCc1cc2c(c3c1[nH]c1ccc(O)cc13)C(=O)N(CCN(C)C)C2=O [compound 39]
- MIC [1]: 0.04 µg/mL (≈ 0.114 µM)
- response vs control in vivo at 10 mg/kg [3, 4]: 20%

Structure (SMILES): CNCCN1C(=O)c2cc(C)c3[nH]c4ccc(O)cc4c3c2C1=O [compound 69]
- MIC [1]: 0.25 µg/mL (≈ 0.773 µM)
- response vs control in vivo at 10 mg/kg [3, 4]: 19%

Structure (SMILES): CCN(CC)CCN1C(=O)c2cc(OC)c3[nH]c4ccc(O)cc4c3c2C1=O.Cl [compound 70, N-(2-diethylaminoethyl)-6-hydroxy-1-methoxycarbazole-3,4-dicarboximide hydrochloride]
- MIC [1]: 0.16 µg/mL
- response vs control in vivo at 10 mg/kg [3, 4]: 18%

Further lines, with some results ahead:

- MIC [1]: 0.063 µg/mL
Structure (SMILES): CCN(CC)CCN1C(=O)c2cc(C)c3[nH]c4ccc(O)cc4c3c2C1=O.Cl [compound 42, N-(2-diethylaminoethyl)-6-hydroxy-1-methylcarbazole-3,4-dicarboximide hydrochloride]
- response vs control in vivo at 7 mg/kg [3, 4]: 18%

- MIC [1]: 0.2 µg/mL
Structure (SMILES): CN(C)CCN1C(=O)c2cc(C3CC3)c3[nH]c4ccc(O)cc4c3c2C1=O [compound 49, N-(2-dimethylaminoethyl)-1-cyclopropyl-6-hydroxycarbazole-3,4-dicarboximidehydrochloride]
- response vs control in vivo at 14 mg/kg [3, 4]: 19%

- MIC [1]: 0.16 µg/mL
Structure (SMILES): CN(C)CCN1C(=O)c2cc(C3CCC3)c3[nH]c4ccc(O)cc4c3c2C1=O.Cl [compound 59, N-(2-dimethylaminoethyl)-1-cyclobutyl-6-hydroxycarbazole-3,4-dicarboximide hydrochloride]
- response vs control in vivo at 14 mg/kg [3, 4]: 12%

- MIC [1]: 0.08 µg/mL (≈ 0.226 µM)
Structure (SMILES): Cc1cc2c(c3c1sc1ccc(O)cc13)C(=O)N(CCN(C)C)C2=O [compound 61]
- response vs control in vivo at 10 mg/kg ([3]; only once on day 1, day 10, read-out: T/C (average tumor weight, treated/control)): 27%

- MIC [1]: 0.16 µg/mL (≈ 0.474 µM)
Structure (SMILES): CCNCCN1C(=O)c2cc(C)c3[nH]c4ccc(O)cc4c3c2C1=O [compound 71]
- response vs control in vivo at 10 mg/kg [3, 4]: 16%

- MIC [1]: 0.16 µg/mL (≈ 0.424 µM)
Structure (SMILES): CC1CC1c1cc2c(c3c1[nH]c1ccc(O)cc13)C(=O)N(CCN(C)C)C2=O (stereo not shown) [compound 74]
- response vs control in vivo at 10 mg/kg [3, 4]: 19%

Reference: patent publication US5166204A, “Isoindole derivatives and salts thereof and antitumor agent comprising the same” (Toyama Chemical Co., Ltd., priority 1989, dated 1992)
